Tests used:
melanoma TILs [1] = assay: Cell counts of melanoma TILs expanded in pre-REP and REP with CPI-444; format: cell-based, human; details: pre-REP 11 days, melanoma tumor fragments pooled
Protocol: The expression of A2aR on TILs and the effect of an A2aR antagonist on TILs was evaluated by culturing melanoma tumor fragments or lung tumor fragments in both pre-REP and the REP phases either with or without the addition of CPI-444 (ciforadenant), an A2aR antagonist, which was obtained commercially from MedChemExpress, Inc., Monmouth Junction, N.J., USA. The experimental procedure is similar to that of Example 3 and Example 10, with the changes as described below.
Melanoma tumors and lung tumors were obtained from patients. The tumor samples were generally fragmented using sharp dissection into small pieces of about 3 mm×3 mm×3 mm. The TILs were cultured from these fragments using mechanical dissociation, using scalpel and forceps. Repeated cycles of mechanical dissociation and mixing were applied until only small tissue pieces are present. At the end of this process, the tumor fragments were placed into pre-REP culture. […]
After TIL harvesting, the TILs are phenotypically analyzed: (1) the total number of cells were counted with an automated cell counter; (2) Flow cytometry was used to determine the fraction of TILs that were CD4^+, CD8^+, within the subset of memory T-Cells, and to determine the presence/absence of A2aR and the expression level of A2aR. […]

melanoma TILs [2] = assay: Flow cytometry of CD8+ and CD4+ subsets, melanoma TILs expanded with CPI-444; format: cell-based, human; details: melanoma TIL cultures treated with A2aR antagonist
From the text: (§1) After TIL harvesting, the TILs are phenotypically analyzed: (1) the total number of cells were counted with an automated cell counter; (2) Flow cytometry was used to determine the fraction of TILs that were CD4^+, CD8^+, within the subset of memory T-Cells, and to determine the presence/absence of A2aR and the expression level of A2aR.
(§2) FIG. 43 illustrates the results of flow cytometry analysis of CD8^+ and CD4^+ subsets for melanoma TILs obtained after the addition of the A2AR antagonist to pre-REP and REP cultures under various conditions. FIG. 44 and FIG. 45 illustrates flow cytometry analysis of CD8^+ and CD4^+ subsets for lung TILs (first and second lung tumor, respectively) obtained after the addition of CPI-444 to pre-REP and REP cultures under various conditions.

lung TILs = assay: Flow cytometry of CD8+ and CD4+ subsets, lung TILs expanded with CPI-444; format: cell-based, human; details: lung TIL cultures
From the text: as §1, §2

peripheral blood B cells = details: cynomolgus monkeys; doses from 0.001-100 mg/kg; two experiments; WO 2015/119923; cited from earlier work

Molecule	Cell Count at end or preREP Culture (Millions of Cells) (melanoma TILs [1]; IL-2 + 12 nM CPI-444/100,000 Cells)	Cell Count at end or preREP Culture (Millions of Cells) (melanoma TILs [1]; IL-2 + 48 nM CPI-444/100,000 Cells)	CD8+ population (melanoma TILs [2])	CD8+ population (lung TILs; at the 12 nM, 48 nM and 32 μM concentrations)	CD8+ TIL populations, response to 8 μM versus 32 μM (lung TILs; second tumor)	peripheral blood B cell numbers (peripheral blood B cells)
Cc1ccc(-c2nc(N)nc3c2nnn3Cc2cccc(CO[C@H]3CCOC3)n2)o1 [CPI-444, 7-(5-methylfuran-2-yl)-3-[[6-[[(3S)-oxolan-3-yl]oxymethyl]pyridin-2-yl]methyl]triazolo[4,5-d]pyrimidin-5-amine]	8.7 Millions of Cells	12.8 Millions of Cells	decrease	increase	modulated differently	–
PF-05082566: fully human immunoglobulin G2-lambda anti-4-1BB (CD137) agonist monoclonal antibody, Pfizer; SEQ ID NO:11 and 12	–	–	–	–	–	either unchanged or decreased
